Test results published in patent publication US7442681B2, “Method of inhibiting vascular permeability” (University of Virginia Patent Foundation, priority 2004, dated 2008).
Where no end group is shown, it is not given here.

Key:
myosin light chain (MLC) = test: MLC phosphorylation, Western blot, BAEC; format: cell-based, bovine; details: 25 ng/ml VEGF, 20 μg/ml peptide or 5 μM ML7
Description: FIG. 6. Regulation of myosin light chain (MLC) phosphorylation by PAK. FIG. 6A: confluent BAEC on FN were treated with vehicle only (+vehicle), 20 μg/ml control peptide (+con pep), 20 μg/ml PAK-blocking peptide (+PAK pep; SEQ ID NO:1), 5 μM ML7 (+ML7) with (+) or without (−) 25 ng/ml VEGF. […] FIG. 6B: as described in A, BAEC were pretreated with 20 μg/ml control peptide (+con pep) or PAK-blocking peptide (+PAK pep) followed by 25 ng/ml of VEGF, 25 ng/ml bFGF, 10 μM histamine, 0.1 units/ml thrombin, or 10 ng/ml of TNF. Upper row, anti-phospho-MLC (pMLC); middle row, total MLC (total MLC); and lower row, pMLC plus an antigenic phospho-peptide (pMLC+AP). […]
Western Blots—Confluent cells were starved in 0.5% serum for 18 h, treated as described in the legends to FIGS. 1, 2, 3 and 6, washed with cold PBS, and then harvested by scraping in cold lysis buffer (25 mM Tris, pH 7.4, 1% Nonidet P-40, 0.5% sodium deoxycholate, 137 mM NaCl, 50 μM EDTA, 10 μg/ml each aprotinin and leupeptin, 1 mM phenylmethylsulfonyl fluoride). […] Protein was transferred to polyvinylidene difluoride membrane, and blots were probed with primary antibodies (described under “Fluorescence Imaging”) followed by horseradish peroxidase-conjugated secondary antibodies (Jackson ImmunoResearch, Inc.). […]

murine lungs = test: Histology of murine lungs treated with peptide and LPS; format: in vivo; details: mice, peptide 1 mg ip, no LPS
Source text: FIG. 9. Histology of murine lungs treated with PAK blocking peptide and LPS. FIGS. 9A (200× magnification), 9B (400×), and 9C (200×) represent photomicrographic images. […] There is some phosphoPAK staining (visible as brown stain in the original color micrographs) present in epithelial structures, alveolar walls (composed of mixed cell types), and vessel endothelium and smooth muscle. Arrow indicates a normal small vessel with red blood cells and few circulating leukocytes. Tissues were counterstained with hematoxylin.
FIG. 10. Histology of murine lungs treated with PAK blocking peptide and LPS. FIGS. 10A (200× magnification), 10B (400×), and 10C (200×) represent photomicrographic images. […] Vessel sections (arrow) indicate that LPS highly increases the amount of pPAK in vessel walls, and also produces inflammatory enlargement of vessels, with an increase in numbers of recruited neutrophils and monocytes admixed with red blood cells and intravasating through vessel walls, an indicator of acute inflammation. Some alveolar tissues are completely eroded and filled with exudate and dead cells (FIG. 10C). Tissues were counterstained with hematoxylin.
FIG. 11. Histology of murine lungs treated with PAK blocking peptide and LPS. FIGS. 11A (200× magnification), 11B (400×), and 11C (200×) represent photomicrographic images. […]

BAEC = test: Paracellular pore formation assay, BAEC on filters; format: cell-based, bovine; details: with or without VEGF
Description: FIG. 5. Effects of PAK on remodeling of cell-cell junctions and the actin cytoskeleton. FIG. 5A: confluent BAECs on coverslips were serum-starved for 18 hours and then treated with 25 ng/ml VEGF. The cells were fixed and stained for phospho-PAK and F-actin. Images show phospho-PAK (pPAK) and F-actin (F-actin) at the indicated times after the addition of VEGF. White arrows indicate pores between cells. Scale bar=50μ. FIG. 5B: phospho-PAK (pPAK) and F-actin (F-actin) are shown in cells prepared and treated as described in FIG. 5A after 60 minutes with VEGF with peptide additions. […]
Monolayer Permeability and Paracellular Pore Formation Assays—Cells were plated onto FN-coated polycarbonate membranes (3.0-μ pore size; Transwell, Costar) at 6×10^4 cells/cm^2 and cultured for 4 days with medium changes every other day until confluence was reached. […] Medium was harvested from the lower chamber, and HRP activity was determined calorimetrically by absorbance at 490 nm to detect the […] reaction product after 15 minutes of incubation with 0.5 mM guaiacol, 50 mM Na2HPO4, and 0.6 mM H2O2. […] To quantify paracellular pore formation and correlate to permeability, the fixed cell monolayer-covered filters were stained for 2 hours with Coomassie Blue (0.25% in 1:1:2 of methanol:glacial acetic acid:double distilled (dd)H2O), destained in the same solution minus dye, rinsed in ddH2O, and air-dried. […]

In the case of `O=S(=O)(c1cccc2c(I)cccc12)N1CCCNCC1` [ML7], the “MLC phosphorylation induced by VEGF” value (myosin light chain (MLC)) is reported as “inhibited”.

In the case of “YGRKKRRQRRRGKPPAPPMRNTSTM [PAK-blocking peptide]”, the “lung histology, peptide-only” value (murine lungs) is reported as “equivalent to untreated mice”.

B1: PAK AID: PAK autoinhibitory domain, residues 83-149, cloned into the pDsRed1-N1 vector and expressed by transient transfection (protein, UniProt Q13153 83-149, looked up, fragment)
chain: HTIHVGFDAVTGEFTGMPEQWARLLQTSNITKSEQKKNPQAVLDVLEFYNSKKTSNSQKYMSFTDKS
modifications: DsRed fusion
B1 was tested, and the “formation of pores between adjacent cells” value (BAEC) was “inhibited pore formation”.
